From patent publication US7595401B2, “Therapeutic compounds and their use in cancer” (Myriad Pharmaceuticals, Inc., priority 2006, dated 2009) come the findings set out here.

Some results are limits rather than exact numbers.

The first assay has as its system purified human Hsp90. As to the kind of experiment: Binding Assay: fluorescence polarization with BODIPY-labeled geldanamycin. The following applies: 5 μM compound, BODIPY-GM 10 nM, Hsp90 30 nM. In outline:
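Compounds in 2% DMSO final compete with 10 nM BODIPY-GM for 30 nM purified human Hsp90, incubated overnight at room temperature in pH 7.3 HEPES buffer containing Na2MoO4 and DTT. Polarization (mP, ex/em 485/530) normalized to DMSO gives percent inhibition; autofluorescence-confounded data excluded.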
A general note: In fluorescence polarisation assays a small probe gives low polarisation when free and higher when bound to something large.
By % Inhibition is commonly meant the drop in the measured response relative to a control, in per cent. Read a low % Inhibition as a response near the control. As for `COc1ccc(OC)c(Sc2nc3c(N)ncn(CCc4cccc(Cl)c4Cl)c-3n2)c1` [Example 74, 3-[2-(2,3-dichloro-phenyl)-ethyl]-8-(2,5-dimethoxy-phenylsulfanyl)-3H-purin-6-ylamine], the “% Inhibition at 5 μM Compound Concentration” value (shortened to “% Inhibition”) is 0%.

`COc1ccc(OC)c(Sc2nc3c(N)ncnc3n2CCc2ccc(O)cc2)c1` [Example 76, 4-{2-[6-amino-8-(2,5-dimethoxy-phenylsulfanyl)-purin-9-yl]-ethyl}-phenol]: the “% Inhibition” value was 6%.

Take `COc1ccc(OC)c(Sc2nc3c(N)ncn(CCc4cccc(Br)c4)c-3n2)c1` [Example 78, 3-[2-(3-bromo-phenyl)-ethyl]-8-(2,5-dimethoxy-phenylsulfanyl)-3H-purin-6-ylamine]: the “% Inhibition” value stood at 17%.

On to `COc1ccc(OC)c(Sc2nc3c(N)ncn(CCc4cccc(C(F)(F)F)c4)c-3n2)c1` [Example 80, 8-(2,5-dimethoxy-phenylsulfanyl)-3-[2-(3-trifluoromethyl-phenyl)-ethyl]-3H-purin-6-ylamine], for which the “% Inhibition” value came to 10%.

For the compound `COc1ccc(OC)c(Sc2nc3c(N)ncnc3n2CCc2ccc(C(=O)O)cc2)c1` [Example 81, 4-{2-[6-Amino-8-(2,5-dimethoxy-phenylsulfanyl)-purin-9-yl]-ethyl}-benzoic acid], the “% Inhibition” value is 23%.

Turning to `COc1ccc(OC)c(Sc2nc3c(N)ncn(CCc4ccc(C(=O)O)cc4)c-3n2)c1` [Example 82, 4-{2-[6-Amino-8-(2,5-dimethoxy-phenylsulfanyl)-purin-3-yl]-ethyl}-benzoic acid], the “% Inhibition” value was 5%.

Consider `COc1ccc(OC)c(Sc2nc3c(N)ncn(Cc4ccc(F)cc4)c-3n2)c1` [Example 83, 8-(2,5-Dimethoxy-phenylsulfanyl)-3-(4-fluoro-benzyl)-3H-purin-6-ylamine], for which the “% Inhibition” value was 0%.

Regarding `COc1ccc(OC)c(Sc2nc3c(N)ncnc3n2Cc2ccc([N+](=O)[O-])cc2)c1` [Example 84, 8-(2,5-Dimethoxy-phenylsulfanyl)-9-(4-nitro-benzyl)-9H-purin-6-ylamine], the “% Inhibition” value amounted to 0%.

As to `CCC(Cn1c(Sc2cc(OC)ccc2OC)nc2c(N)ncnc21)c1ccccc1` (stereo not shown) [Example 87, 8-(2,5-Dimethoxy-phenylsulfanyl)-9-(2-phenyl-butyl)-9H-purin-6-ylamine], the “% Inhibition” value was determined as 12%.

As to `COc1ccc(OC)c(Sc2nc3c(N)ncn(CCc4cc(OC)c(OC)c(OC)c4)c-3n2)c1` [Example 90, 8-(2,5-Dimethoxy-phenylsulfanyl)-3-[2-(3,4,5-trimethoxy-phenyl)-ethyl]-3H-purin-6-ylamine], the “% Inhibition” value is 6%.

As for `COc1cc(CCn2cnc(N)c3nc(Sc4cc5c(cc4Br)OCO5)nc2-3)cc(OC)c1OC` [Example 92, 8-(6-bromo-benzo[1,3]dioxol-5-ylsulfanyl)-3-[2-(3,4,5-trimethoxy-phenyl)-ethyl]-3H-purin-6-ylamine], the “% Inhibition” value was 0%.

Take `Cc1cc(C)c(CCn2cnc(N)c3nc(Sc4cc5c(cc4Br)OCO5)nc2-3)c(C)c1` [Example 94, 8-(6-bromo-benzo[1,3]dioxol-5-ylsulfanyl)-3-[2-(2,4,6-trimethyl-phenyl)-ethyl]-3H-purin-6-ylamine]: the “% Inhibition” value is listed as 0%.

Regarding `Nc1ncn(CC2(c3ccc(Cl)cc3)CCC2)c2nc(Sc3cc4c(cc3Br)OCO4)nc1-2` [Example 96, 8-(6-bromo-benzo[1,3]dioxol-5-ylsulfanyl)-3-[1-(4-chloro-phenyl)-cyclobutylmethyl]-3H-purin-6-ylamine], the “% Inhibition” value was 2%.

With `COc1ccc(OC)c(Sc2nc3c(N)ncn(CCc4ccc(Cl)cc4F)c-3n2)c1` [Example 98, 3-[2-(4-chloro-2-fluoro-phenyl)-ethyl]-8-(2,5-dimethoxy-phenylsulfanyl)-3H-purin-6-ylamine], the “% Inhibition” value is reported as 0%.

On to `CCC(C)C(Cn1cnc(N)c2nc(Sc3cc4c(cc3Br)OCO4)nc1-2)c1ccccc1` (stereo not shown) [Example 100, 8-(6-bromo-benzo[1,3]dioxol-5-ylsulfanyl)-3-(3-methyl-2-phenyl-pentyl)-3H-purin-6-ylamine], for which the “% Inhibition” value is recorded as 39%.

In the case of `Nc1ncn(CC(c2ccccc2)C2CCCC2)c2nc(Sc3cc4c(cc3Br)OCO4)nc1-2` (stereo not shown) [Example 102, 8-(6-bromo-benzo[1,3]dioxol-5-ylsulfanyl)-3-(2-cyclopentyl-2-phenyl-ethyl)-3H-purin-6-ylamine], the “% Inhibition” value was 39%.

As for `COc1ccc(OC)c(Sc2nc3c(N)ncn(CC(c4ccccc4)C4CCCC4)c-3n2)c1` (stereo not shown) [Example 104, 3-(2-cyclopentyl-2-phenyl-ethyl)-8-(2,5-dimethoxy-phenylsulfanyl)-3H-purin-6-ylamine], the “% Inhibition” value was determined as 38%.

As to `CCC(C)C(Cn1cnc(N)c2nc(Sc3cc(OC)ccc3OC)nc1-2)c1ccccc1` (stereo not shown) [Example 106, 8-(2,5-dimethoxy-phenylsulfanyl)-3-(3-methyl-2-phenyl-pentyl)-3H-purin-6-ylamine], the “% Inhibition” value is given as 41%.

Regarding `COc1ccc(OC)c(Sc2nc3c(N)ncnc3n2CC(O)c2ccc(Cl)cc2Cl)c1` (stereo not shown) [Example 107, 2-[6-Amino-8-(2,5-dimethoxy-phenylsulfanyl)-purin-9-yl]-1-(2,4-dichloro-phenyl)ethanol], the “% Inhibition” value is listed as 0%.

In the case of `COc1ccc(OC)c(Sc2nc3c(N)ncn(CC(O)c4ccc(Cl)cc4Cl)c-3n2)c1` (stereo not shown) [Example 108, 2-[6-amino-8-(2,5-dimethoxy-phenylsulfanyl)-purin-3-yl]-1-(2,4-dichloro-phenyl)ethanol], the “% Inhibition” value amounted to 30%.

The assay is the same for the next values; noted with them: BODIPY-GM 10 nM, Hsp90 30 nM.
A word on the IC50: it is the concentration needed to halve the response being measured. Read a low IC50 as greater potency. As for `COc1ccc(OC)c(Sc2nc3c(N)ncnc3n2CCc2ccc(O)cc2)c1` [Example 75, 4-{2-[6-Amino-8-(2,5-dimethoxy-phenylsulfanyl)-purin-9-yl]-ethyl}-phenol], the IC50 worked out at 2900 nM.

Consider `COc1ccc(OC)c(Sc2nc3c(N)ncnc3n2CCc2cccc(Br)c2)c1` [Example 77, 9-[2-(3-Bromo-phenyl)-ethyl]-8-(2,5-dimethoxy-phenylsulfanyl)-9H-purin-6-ylamine], for which the half-inhibitory concentration (IC50) is 1900 nM.

The compound `COc1ccc(OC)c(Sc2nc3c(N)ncnc3n2CCc2cccc(C(F)(F)F)c2)c1` [Example 79, 8-(2,5-Dimethoxy-phenylsulfanyl)-9-[2-(3-trifluoromethyl-phenyl)-ethyl]-9H-purin-6-ylamine] came in with an IC50 of 300 nM.

For the compound `COc1ccc(OC)c(Sc2nc3c(N)ncnc3n2Cc2ccc([N+](=O)[O-])cc2)c1` [Example 84, 8-(2,5-Dimethoxy-phenylsulfanyl)-9-(4-nitro-benzyl)-9H-purin-6-ylamine], the IC50 was over 5000 nM.

The compound `COc1ccc(OC)c(Sc2nc3c(N)ncnc3n2CCc2ccccc2OC)c1` [Example 85, 8-(2,5-Dimethoxy-phenylsulfanyl)-9-[2-(2-methoxy-phenyl)-ethyl]-9H-purin-6-ylamine] had an IC50 of 360 nM.

For the compound `COc1ccc(OC)c(Sc2nc3c(N)ncn(CCc4ccccc4OC)c-3n2)c1` [Example 86, 8-(2,5-dimethoxy-phenylsulfanyl)-3-[2-(2-methoxy-phenyl)-ethyl]-3H-purin-6-ylamine], the half-inhibitory concentration (IC50) was over 5000 nM.

Compound `CCC(Cn1cnc(N)c2nc(Sc3cc(OC)ccc3OC)nc1-2)c1ccccc1` (stereo not shown) [Example 88] gave a concentration for half-maximal inhibition (IC50) of 1300 nM.

The compound `COc1ccc(OC)c(Sc2nc3c(N)ncnc3n2CCc2cc(OC)c(OC)c(OC)c2)c1` [Example 89, 8-(2,5-Dimethoxy-phenylsulfanyl)-9-[2-(3,4,5-trimethoxy-phenyl)-ethyl]-9H-purin-6-ylamine] gave an IC50 of over 10000 nM.

`COc1cc(CCn2c(Sc3cc4c(cc3Br)OCO4)nc3c(N)ncnc32)cc(OC)c1OC` [Example 91, 8-(6-Bromo-benzo[1,3]dioxol-5-ylsulfanyl)-9-[2-(3,4,5-trimethoxy-phenyl)-ethyl]-9H-purin-6-ylamine] yielded an IC50 of 200 nM.

In turn, `Cc1cc(C)c(CCn2c(Sc3cc4c(cc3Br)OCO4)nc3c(N)ncnc32)c(C)c1` [Example 93, 8-(6-Bromo-benzo[1,3]dioxol-5-ylsulfanyl)-9-[2-(2,4,6-trimethyl-phenyl)-ethyl]-9H-purin-6-ylamine] registered a half-inhibitory concentration (IC50) of 190 nM.

For `Nc1ncnc2c1nc(Sc1cc3c(cc1Br)OCO3)n2CC1(c2ccc(Cl)cc2)CCC1` [Example 95, 8-(6-Bromo-benzo[1,3]dioxol-5-ylsulfanyl)-9-[1-(4-chloro-phenyl)-cyclobutylmethyl]-9H-purin-6-ylamine], the concentration for half-maximal inhibition (IC50) is over 3000 nM.

The compound `COc1ccc(OC)c(Sc2nc3c(N)ncnc3n2CCc2ccc(Cl)cc2F)c1` [Example 97, 9-[2-(4-Chloro-2-fluoro-phenyl)-ethyl]-8-(2,5-dimethoxy-phenylsulfanyl)-9H-purin-6-ylamine] showed an IC50 of 450 nM.

For `CCC(C)C(Cn1c(Sc2cc3c(cc2Br)OCO3)nc2c(N)ncnc21)c1ccccc1` (stereo not shown) [Example 99, 8-(6-Bromo-benzo[1,3]dioxol-5-ylsulfanyl)-9-(3-methyl-2-phenyl-pentyl)-9H-purin-6-ylamine], the half-maximal inhibitory concentration (IC50) worked out at 300 nM.

Consider `Nc1ncnc2c1nc(Sc1cc3c(cc1Br)OCO3)n2CC(c1ccccc1)C1CCCC1` (stereo not shown) [Example 101, 8-(6-Bromo-benzo[1,3]dioxol-5-ylsulfanyl)-9-(2-cyclopentyl-2-phenyl-ethyl)-9H-purin-6-ylamine], for which the IC50 was over 3000 nM.

In turn, `COc1ccc(OC)c(Sc2nc3c(N)ncnc3n2CC(c2ccccc2)C2CCCC2)c1` (stereo not shown) [Example 103, 9-(2-Cyclopentyl-2-phenyl-ethyl)-8-(2,5-dimethoxy-phenylsulfanyl)-9H-purin-6-ylamine] had an IC50 of over 1000 nM.

The compound `CCC(C)C(Cn1c(Sc2cc(OC)ccc2OC)nc2c(N)ncnc21)c1ccccc1` (stereo not shown) [Example 105, 8-(2,5-Dimethoxy-phenylsulfanyl)-9-(3-methyl-2-phenyl-pentyl)-9H-purin-6-ylamine] had an IC50 of over 1000 nM.

`Nc1ncnc2c1nc(Sc1cc3c(cc1Br)OCO3)n2CCc1cccc(F)c1` [Example 109, 8-(6-Bromo-benzo[1,3]dioxol-5-ylsulfanyl)-9-[2-(3-fluoro-phenyl)-ethyl]-9H-purin-6-ylamine] came in with an IC50 of 300 nM.
